# Data reported in article PMC12655351, “Synthesis and Anticancer Activity Evaluation of New 5-((5-Nitrofuran-2-yl)allylidene)-2-thioxo-4-thiazolidinones” (Pharmaceuticals, 2025).
# What was measured:
# [1] = test system: MCF-7; assay: [3H]-thymidine incorporation assay; format: cell-based; conditions: Homo sapiens, MCF7; MCF-7, 24 h of treatment
# Method: (§1) Another method of assessing the cytotoxic effects of tested compounds, [^3H]-thymidine incorporation assay, was applied. This method provided the capability to analyze the antiproliferative activity of novel structures on MCF-7 and MDA-MB-231 through their ability to incorporate thymidine into the cells. The acquired results further confirmed the potent activity of the 14b compound as the most prominent structure among the novel compounds (Table 2). The test was carried out in triplicate at concentrations of 5, 15, and 30 μM for the MDA-MB-231 cell line and 1, 5, and 10 μM for the MCF-7 cell line.
# (§2) Following the selection of cell lines for further study, the effects of all compounds on cell proliferation were evaluated on MCF-7 and MDA-MB-231 cell lines. Cells were seeded in 24-well plates and cultured as described above. Cells were treated with the compounds at concentrations 1, 5, and 10 μM, and 5, 15, and 30 μM for MCF-7 and MDA-MB-231 cell lines, respectively, for 24 h. Subsequently, 0.5 μCi [^3H]-thymidine was added for 4 h at 37 °C. Then, plates with cells were placed on the ice, the liquid was aspirated, and cells were washed twice with 1mL of 0.05 M Tris-HCl buffer comprising 0.11 M NaCl and precipitated by adding 1 mL per well of 5% trichloroacetic. After precipitation, the cells were dissolved with 1 mL of 0.1 M NaOH with 1% SDS (Sigma-Aldrich, St. Louis, MO, USA) at room temperature (RT). The cell lysates were transferred into scintillation vials containing 2 mL of scintillation fluid (Ultima Gold™ XR, PerkinElmer, MA, USA), and cell-associated radioactivity was measured using a Scintillation Counter 1900 TR, TRI-CARB (Packard, Perkin Elmer, Inc., San Jose, CA, USA). The [^3H]-thymidine uptake was expressed as a percentage of the control value.
# [2] = test system: MDA-MB-231; assay: [3H]-thymidine incorporation assay; format: cell-based; conditions: Homo sapiens; MDA-MB-231, 24 h of treatment
# Method: as §1, §2
# [3] = test system: SR; conditions: 48 h
# [4] = test system: NCI-H23; conditions: NCI-H23, 48 h
# [5] = test system: HCC-2998; conditions: for growth GP: HCC-2998, 10 μM, 48 h; for TGI: HCC-2998, 48 h
# [6] = test system: SF-539; conditions: for growth GP: SF-539, 10 μM, 48 h; for TGI: SF-539, 48 h
# [7] = test system: OVCAR-3; conditions: for growth GP: OVCAR-3, 10 μM, 48 h; for TGI: OVCAR-3, 48 h
# [8] = test system: OVCAR-4; conditions: OVCAR-4, 48 h
# [9] = test system: NCI/ADR-RES; conditions: 48 h
# [10] = test system: MDA-MB-231/ATCC; conditions: 48 h
# [11] = test system: HS 578T; conditions: 48 h
# [12] = test system: T-47D; conditions: 48 h
# [13] = test system: Melanoma; conditions: Melanoma subpanel
# [14] = test system: Ovarian cancer; conditions: Ovarian cancer subpanel
# [15] = test system: Prostate Cancer; conditions: Prostate Cancer subpanel
# [16] = test system: panel of 60 cancer cell lines; conditions: for Positive cytostatic effect (ratio of cell lines with GP from 0 to 50 to total number) / Mean growth: 10 μM, 48 h; for Mean growth: one dose; for MG_MID TGI: full panel (last line of Table S2)
# [17] = test system: SR; assay: cells; conditions: Homo sapiens, 48 h; for CC50: read-out: LC50
# [18] = test system: LOX IMVI; assay: cells; conditions: Homo sapiens, 48 h; for CC50: read-out: LC50, LOX IMVI, 48 h
# [19] = test system: OVCAR-3; assay: cells; conditions: Homo sapiens, OVCAR-3, 48 h
# [20] = test system: 786-0; assay: cells; conditions: Homo sapiens, 786-0, 48 h
# [21] = test system: SN12C; assay: cells; conditions: Homo sapiens, 48 h; for CC50: read-out: LC50, SN12C, 48 h
# [22] = test system: Leukemia; assay: cells; conditions: Homo sapiens; for GI50: read-out: MG_MID GI50; for CC50: read-out: MG_MID LC50
# [23] = test system: Breast cancer; assay: cells; conditions: Homo sapiens; for GI50: read-out: MG_MID GI50; for CC50: read-out: MG_MID LC50
# [24] = test system: HOP-62; assay: NCI-60 SRB screen; conditions: HOP-62, 48 h; for GI50: Homo sapiens
# [25] = test system: SF-295; assay: NCI-60 SRB screen; conditions: SF-295, 48 h; for GI50 / CC50: Homo sapiens; for CC50: read-out: LC50, SF-295, 48 h
# [26] = test system: SNB-19; assay: NCI-60 SRB screen; conditions: for GI50 / CC50: Homo sapiens; for GI50 / CC50 / TGI: SNB-19, 48 h; for CC50: read-out: LC50, SNB-19, 48 h
# [27] = test system: SNB-75; assay: NCI-60 SRB screen; conditions: SNB-75, 48 h; for GI50 / CC50: Homo sapiens; for CC50: read-out: LC50, SNB-75, 48 h
# [28] = test system: U251; assay: NCI-60 SRB screen; conditions: for GI50 / CC50: Homo sapiens, U-251, 48 h; for GI50 / TGI: U251, 48 h; for CC50: read-out: LC50, U251, 48 h
# [29] = test system: RXF 393; assay: NCI-60 SRB screen; conditions: RXF 393, 48 h; for GI50: Homo sapiens
# [30] = test system: Colon cancer; assay: NCI-60 SRB screen, subpanel; conditions: for MG_MID TGI: Colon cancer subpanel; for GI50 / CC50: Homo sapiens; for GI50: read-out: MG_MID GI50; for CC50: read-out: MG_MID LC50
smiles,measurement,setting,value
"CC(C)C(C(=O)O)N1C(=O)/C(=C/C=C/c2ccc([N+](=O)[O-])o2)SC1=S (stereo not shown) [5b, 3-Methyl-2-((Z)-5-((E)-3-(5-nitrofuran-2-yl)allylidene)-4-oxo-2-thioxothiazolidin-3-yl)butanoic acid]",IC50,[1],1.93 µM
same,IC50,[2],6.01 µM
same,TGI,[3],1.89 µM
same,TGI,[4],3.41 µM
same,growth GP,[5],-95.90%
same,TGI,[5],3.22 µM
same,growth GP,[6],-98.47%
same,TGI,[6],2.91 µM
same,growth GP,[7],-95.93%
same,TGI,[7],2.77 µM
same,TGI,[8],6.72 µM
same,TGI,[9],4.13 µM
same,TGI,[10],3.03 µM
same,TGI,[11],7.56 µM
same,TGI,[12],3.24 µM
same,MG_MID TGI,[13],2.68 µM
same,MG_MID TGI,[14],5.19 µM
same,MG_MID TGI,[15],4.67 µM
same,Positive cytostatic effect (ratio of cell lines with GP from 0 to 50 to total number),[16],2/55
same,Mean growth,[16],-73.80%
same,MG_MID TGI,[16],3.53 µM
same,GI50,[17],0.32 µM
same,CC50,[17],> 100 µM
same,GI50,[18],1.16 µM
same,CC50,[18],5.33 µM
same,GI50,[19],1.34 µM
same,GI50,[20],1.06 µM
same,GI50,[21],0.79 µM
same,CC50,[21],4.96 µM
same,GI50,[22],0.84 µM
same,CC50,[22],> 100 µM
same,GI50,[23],1.22 µM
same,CC50,[23],24.6 µM
same,TGI,[24],3.08 µM
same,GI50,[24],1.35 µM
same,GI50,[25],1.83 µM
same,CC50,[25],6.69 µM
same,TGI,[25],3.49 µM
same,GI50,[26],1.64 µM
same,CC50,[26],5.53 µM
same,growth GP,"[26]; SNB-19, 10 μM, 48 h",-97.77%
same,TGI,[26],3.01 µM
same,GI50,[27],0.68 µM
same,CC50,[27],4.89 µM
same,TGI,[27],1.98 µM
same,GI50,[28],0.5 µM
same,CC50,[28],4.64 µM
same,TGI,[28],1.79 µM
same,GI50,[29],1.74 µM
same,TGI,[29],3.27 µM
same,MG_MID TGI,[30],2.48 µM
same,GI50,[30],1.03 µM
same,CC50,[30],7.06 µM
"CCCC(C(=O)O)N1C(=O)/C(=C/C=C/c2ccc([N+](=O)[O-])o2)SC1=S (stereo not shown) [4b, 2-((Z)-5-((E)-3-(5-Nitrofuran-2-yl)allylidene)-4-oxo-2-thioxothiazolidin-3-yl)pentanoic acid]",IC50,[1],6.13 µM
same,IC50,[2],3.66 µM
same,TGI,[3],8.87 µM
same,TGI,[4],4.11 µM
same,TGI,[5],3.33 µM
same,TGI,[6],4.77 µM
same,TGI,[7],5.39 µM
same,TGI,[8],19.1 µM
same,TGI,[9],4.96 µM
same,TGI,[10],4.29 µM
same,TGI,[11],10.1 µM
same,TGI,[12],5.49 µM
same,MG_MID TGI,[13],3.41 µM
same,MG_MID TGI,[14],8.71 µM
same,MG_MID TGI,[15],8.56 µM
same,Positive cytostatic effect (ratio of cell lines with GP from 0 to 50 to total number),[16],4/55
same,Mean growth,[16],36.52%
same,MG_MID TGI,[16],5.85 µM
same,GI50,[17],1.86 µM
same,CC50,[17],> 100 µM
same,GI50,[18],1.59 µM
same,CC50,[18],6.11 µM
same,GI50,[19],2.18 µM
same,GI50,[20],3.71 µM
same,GI50,[21],1.76 µM
same,CC50,[21],9.32 µM
same,GI50,[22],2.36 µM
same,CC50,[22],> 100 µM
same,GI50,[23],1.85 µM
same,CC50,[23],38.3 µM
same,TGI,[24],5.43 µM
same,GI50,[24],2.23 µM
same,GI50,[25],2.2 µM
same,CC50,[25],25.7 µM
same,TGI,[25],6.76 µM
same,GI50,[26],2.01 µM
same,CC50,[26],8.45 µM
same,TGI,[26],4.12 µM
same,GI50,[27],1.53 µM
same,CC50,[27],6.99 µM
same,TGI,[27],3.27 µM
same,GI50,[28],1.69 µM
same,CC50,[28],6.7 µM
same,TGI,[28],3.37 µM
same,GI50,[29],1.89 µM
same,TGI,[29],3.40 µM
same,MG_MID TGI,[30],3.41 µM
same,GI50,[30],1.73 µM
same,CC50,[30],6.48 µM
"O=C(O)CCN1C(=O)/C(=C/C=C/c2ccc([N+](=O)[O-])o2)SC1=S [12b, 3-((Z)-5-((E)-3-(5-Nitrofuran-2-yl)allylidene)-4-oxo-2-thioxothiazolidin-3-yl)propanoic acid]",IC50,[1],6.66 µM
same,IC50,[2],1.82 µM
same,TGI,[3],1.15 µM
same,TGI,[4],3.37 µM
same,growth GP,[5],-95.81%
same,TGI,[5],9.26 µM
same,growth GP,[6],-96.95%
same,TGI,[6],3.65 µM
same,growth GP,[7],-96.70%
same,TGI,[7],3.01 µM
same,TGI,[8],3.79 µM
same,TGI,[9],4.28 µM
same,TGI,[10],3.24 µM
same,TGI,[11],7.93 µM
same,TGI,[12],3.55 µM
same,MG_MID TGI,[13],2.60 µM
same,MG_MID TGI,[14],5.84 µM
same,MG_MID TGI,[15],10.6 µM
same,Positive cytostatic effect (ratio of cell lines with GP from 0 to 50 to total number),[16],4/55
same,Mean growth,[16],-62.05%
same,MG_MID TGI,[16],4.69 µM
same,GI50,[17],0.3 µM
same,GI50,[18],0.58 µM
same,CC50,[18],4.34 µM
same,GI50,[19],1.36 µM
same,GI50,[20],1.38 µM
same,GI50,[21],1.07 µM
same,CC50,[21],5.04 µM
same,GI50,[22],0.66 µM
same,CC50,[22],> 100 µM
same,GI50,[23],1.09 µM
same,CC50,[23],37.4 µM
same,TGI,[24],3.57 µM
same,GI50,[24],1.61 µM
same,GI50,[25],2.17 µM
same,CC50,[25],16.3 µM
same,TGI,[25],5.21 µM
same,GI50,[26],2.3 µM
same,CC50,[26],22.9 µM
same,TGI,[26],6.37 µM
same,GI50,[27],1.1 µM
same,CC50,[27],14.1 µM
same,TGI,[27],3.67 µM
same,GI50,[28],1.07 µM
same,CC50,[28],5.53 µM
same,TGI,[28],2.43 µM
same,GI50,[29],1.58 µM
same,TGI,[29],3.02 µM
same,MG_MID TGI,[30],2.93 µM
